Assay results taken from patent US20250353812A1, “2,6-DIBENZYLIDENECYCLOHEXANONE OXIME COMPOUND AND PREPARATION METHOD THEREFOR AND USE THEREOF” (WENZHOU MEDICAL UNIVERSITY, priority 2022, published 2025).

Columns and labels:
IL-6 = test: Inhibition of IL-6 release from J774A.1 macrophages stimulated by LPS (ELISA); type: cell-based; conditions: 10 μM compound pretreatment 2 h, then 0.5 μg/mL LPS 22 h, LPS control = 100, FIG. 1
Procedure: (§1) The present invention tested the dose-effect relationship of some of the compounds of Examples in inhibiting the release of IL-6 and TNF-α from J774A.1 macrophages stimulated by LPS. The specific method is as follows: 1.2×10^6 […] macrophages were cultured by DMEM culture solution at 37° C., the culture solution was renewed after 24 h, the tested example compound (at a final concentration of 10 μM) was added for pretreatment for 2 h and then continuously treated by 0.5 μg/mL of LPS for 22 h, the culture solution was collected, and the content of IL-6 and TNF-α was detected by ELISA method. The total protein concentration was measured by collecting cells, the ELISA results were divided by the corresponding total protein concentration and calibrated by the IL-6 and TNF-α content of LPS control group as 100, and the average and error values were calculated.

TNF-α = test: Inhibition of TNF-α release from J774A.1 macrophages stimulated by LPS (ELISA); type: cell-based; conditions: 10 μM compound pretreatment 2 h, then 0.5 μg/mL LPS 22 h, LPS control = 100, FIG. 2
Procedure: as §1

[1] = test system: liver inflammation in obese mice; test: Protective effect on liver inflammation in obese mice (high-fat diet); type: in vivo; conditions: HFD mice, Example 9 12 mg/kg, intragastric gavage every two days for 8 weeks
Procedure: (§2) A suspension of 0.5% sodium carboxymethylcellulose and the compounds of Examples was prepared for intragastric administration. The blank control group and the high-fat diet obesity model group were administrated with equal doses of solvent (0.5% CMC-Na solution) intragastrically. The mice were first adaptively raised for 1 week, and when the mice were 8 weeks old, they were randomly divided into 2 groups (A: Con, B: HFD). Group A was fed with normal mouse feed, and mice in group B were fed with 60% high-fat feed for 16 weeks. After the model was successfully established at 12 weeks, the mice in group B were randomly divided into three groups (i: HFD, ii: HFD+Example 9, 12 mg/kg, iii: HFD+Example 2, 10 mg/kg). The body weight of the mice was measured and recorded every week, and groups ii and iii were treated with the compounds of Examples by intragastric gavage every two days for 8 weeks. After 24 weeks, the mice were anesthetized and sacrificed, and blood samples were collected and centrifuged to collect serum for various serum biochemical tests; the liver was removed, and the liver tissue was cut and embedded (frozen and paraffin) for immunohistochemistry and other analyses. The remaining liver tissues were snap frozen in liquid nitrogen and stored in a −80° C. freezer.
Taking the compounds of Examples 2 and 9 as examples, the experimental results are shown in FIGS. 3A-3D and FIGS. 4A-4E, where 2 and 9 represent the compounds of Example 2 and Example 9, respectively. Inflammation was assessed by examining macrophage infiltration in the liver using the macrophage-specific marker F4/80 staining. […] In addition, the expression of TNF-α, IL-6 and IL-1β genes in liver tissue was detected.

[2] = test system: liver lipid metabolism of obese mice; test: Protective effect on liver lipid metabolism of obese mice (high-fat diet); type: in vivo; conditions: HFD mice; Example 9 12 mg/kg, Example 2 10 mg/kg, intragastric gavage every two days for 8 weeks
Procedure: as §2
The liver lipid metabolism of obese mice is taken as an example. […] It can be clearly seen from the above test results that the compound having the structure of formula I of the present invention has a protective effect on the liver lipid metabolism of obese mice.

FC(F)(F)c1ccccc1/C=C1\CCC/C(=C\c2ccccc2C(F)(F)F)C1=NOCCN1CCCC1 [Example 5]
inhibitory effect on the release of IL-6 (IL-6): significant inhibitory effect

FC(F)(F)c1ccccc1/C=C1\CCC/C(=C\c2ccccc2C(F)(F)F)C1=NOCCN1CCOCC1 [Example 7, 2,6-(E,E)-(2-(trifluoromethyl)benzylidene)cyclohexan-1-one-2-(morpholinoethyl)oxime]
inhibitory effect on the release of IL-6 (IL-6): significant inhibitory effect
inhibitory effect on the release of TNF-α (TNF-α): significant inhibitory effect

Clc1ccc(/C=C2\CCC/C(=C\c3ccc(Cl)c(Cl)c3)C2=NOCCN2CCOCC2)cc1Cl [Example 39, 2,6-(E,E)-(3,4-(dichloro)benzylidene)cyclohexan-1-one-2-(morpholinoethyl)oxime]
inhibitory effect on the release of IL-6 (IL-6): significant inhibitory effect
inhibitory effect on the release of TNF-α (TNF-α): significant inhibitory effect

FC(F)(F)c1ccccc1/C=C1\CCC/C(=C\c2ccccc2C(F)(F)F)C1=NOCCCN1CCCC1 [Example 6, 2,6-(E,E)-(2-(trifluoromethyl)benzylidene)cyclohexan-1-one-3-(pyrrolidin-1-yl)propyl oxime]
inhibitory effect on the release of IL-6 (IL-6): significant inhibitory effect

COc1cccc(CON=C2/C(=C/c3ccccc3C(F)(F)F)CCC/C2=C\c2ccccc2C(F)(F)F)c1 [Example 16, 2,6-(E,E)-(2-(trifluoromethyl)benzylidene)cyclohexan-1-one-3-methoxybenzyl oxime]
inhibitory effect on the release of IL-6 (IL-6): significant inhibitory effect

CC(C)ON=C1/C(=C/c2ccccc2C(F)(F)F)CCC/C1=C\c1ccccc1C(F)(F)F [Example 10, 2,6-(E,E)-(2-(trifluoromethyl)benzylidene)cyclohexan-1-one isopropyl oxime]
inhibitory effect on the release of IL-6 (IL-6): significant inhibitory effect

FC(F)(F)c1ccccc1/C=C1\CCC/C(=C\c2ccccc2C(F)(F)F)C1=NOCC1CCCO1 (centres unmarked) [Example 26, 2,6-(E,E)-(2-(trifluoromethyl)benzylidene)cyclohexan-1-one-((tetrahydrofuran-2-yl)methyl)oxime]
inhibitory effect on the release of TNF-α (TNF-α): significant inhibitory effect

Fc1ccc(CCON=C2/C(=C/c3ccccc3C(F)(F)F)CCC/C2=C\c2ccccc2C(F)(F)F)cc1 [Example 25, 2,6-(E,E)-(2-(trifluoromethyl)benzylidene)cyclohexan-1-one-4-(fluorophenethyl)oxime]
inhibitory effect on the release of IL-6 (IL-6): significant inhibitory effect
inhibitory effect on the release of TNF-α (TNF-α): significant inhibitory effect

ON=C1/C(=C/c2ccccc2C(F)(F)F)CCC/C1=C\c1ccccc1C(F)(F)F [Example 9, 2,6-(E,E)-(2-(trifluoromethyl)benzylidene)cyclohexanone oxime]
inhibitory effect on the release of IL-6 (IL-6): significant inhibitory effect
macrophage infiltration in the liver (F4/80 staining) ([1]; Example 2 10 mg/kg): decreased
upregulation of IL-1β gene in mouse liver tissue (mRNA) ([1]; Example 2 10 mg/kg): significantly alleviated
upregulation of IL-6 gene in mouse liver tissue (mRNA) ([1]; Example 2 10 mg/kg): significantly alleviated
upregulation of TNF-α gene in mouse liver tissue (mRNA) ([1]; Example 2 10 mg/kg): significantly alleviated
degradation of IκB-α in the liver caused by high-fat diet feeding (Western blot) [1]: significantly inhibit
dyslipidemia caused by high-fat diet feeding (serum triglycerides, low-density lipoprotein cholesterol, total cholesterol) [2]: significantly alleviated
lipid accumulation in the liver (H&E staining) [2]: significantly alleviated
lipid accumulation in the liver (oil red staining of frozen sections, quantified) [2]: significantly alleviates
inhibitory effect on the release of TNF-α (TNF-α): significant inhibitory effect

Fc1ccc(CON=C2/C(=C/c3ccccc3C(F)(F)F)CCC/C2=C\c2ccccc2C(F)(F)F)cc1 [Example 19, 2,6-(E,E)-(2-(trifluoromethyl)benzylidene)cyclohexan-1-one-4-fluorobenzyl oxime]
inhibitory effect on the release of TNF-α (TNF-α): significant inhibitory effect

Cc1cccc(CCON=C2/C(=C/c3ccccc3C(F)(F)F)CCC/C2=C\c2ccccc2C(F)(F)F)c1 [Example 22, 2,6-(E,E)-(2-(trifluoromethyl)benzylidene)cyclohexan-1-one-3-(methylphenylethyl)oxime]
inhibitory effect on the release of TNF-α (TNF-α): significant inhibitory effect

CN1CCN(CCCON=C2/C(=C/c3ccccc3C(F)(F)F)CCC/C2=C\c2ccccc2C(F)(F)F)CC1 [Example 30, 2,6-(E,E)-(2-(trifluoromethyl)benzylidene)cyclohexan-1-one-(3-(4-methylpiperazin-1-yl)propyl)oxime]
inhibitory effect on the release of IL-6 (IL-6): significant inhibitory effect

CCCON=C1/C(=C/c2ccccc2)CCC/C1=C\c1ccccc1 [Example 32, 2,6-(E,E)-(benzylidene)cyclohexan-1-one propyl oxime]
inhibitory effect on the release of IL-6 (IL-6): significant inhibitory effect
inhibitory effect on the release of TNF-α (TNF-α): significant inhibitory effect

Fc1cccc(CCON=C2/C(=C/c3ccccc3C(F)(F)F)CCC/C2=C\c2ccccc2C(F)(F)F)c1 [Example 24, 2,6-(E,E)-(2-(trifluoromethyl)benzylidene)cyclohexan-1-one-3-(fluorophenethyl)oxime]
inhibitory effect on the release of TNF-α (TNF-α): significant inhibitory effect

FC(F)(F)c1ccccc1/C=C1\CCC/C(=C\c2ccccc2C(F)(F)F)C1=NOCC1CCCC1 [Example 13, 2,6-(E,E)-(2-(trifluoromethyl)benzylidene)cyclohexan-1-one cyclopentylmethyl oxime]
inhibitory effect on the release of IL-6 (IL-6): significant inhibitory effect

CC(C)ON=C1/C(=C/c2ccccc2F)CCC/C1=C\c1ccccc1F [Example 33, 2,6-(E,E)-(2-(fluoro)benzylidene)cyclohexan-1-one isopropyl oxime]
inhibitory effect on the release of IL-6 (IL-6): significant inhibitory effect
inhibitory effect on the release of TNF-α (TNF-α): significant inhibitory effect

FC(F)(F)c1ccccc1/C=C1\CCC/C(=C\c2ccccc2C(F)(F)F)C1=NOCCC1OCCO1 [Example 29]
inhibitory effect on the release of TNF-α (TNF-α): significant inhibitory effect

Oc1ccc(/C=C2\CCC/C(=C\c3ccc(O)cc3)C2=NOCC2CCCC2)cc1 [Example 37, 2,6-(E,E)-(4-(hydroxy)benzylidene)cyclohexan-1-one cyclopentylmethyl oxime]
inhibitory effect on the release of IL-6 (IL-6): significant inhibitory effect
inhibitory effect on the release of TNF-α (TNF-α): significant inhibitory effect

FC(F)(F)c1ccccc1/C=C1\CCC/C(=C\c2ccccc2C(F)(F)F)C1=NOCC1OCCO1 [Example 27, 2,6-(E,E)-(2-(trifluoromethyl)benzylidene)cyclohexan-1-one-((1,3-dioxolan-2-yl)methyl)oxime]
inhibitory effect on the release of IL-6 (IL-6): significant inhibitory effect
inhibitory effect on the release of TNF-α (TNF-α): significant inhibitory effect

FC(F)(F)c1ccccc1/C=C1\CCC/C(=C\c2ccccc2C(F)(F)F)C1=NOCc1c(Cl)cccc1Cl [Example 20, 2,6-(E,E)-(2-(trifluoromethyl)benzylidene)cyclohexan-1-one-2,6-dichlorobenzyl oxime]
inhibitory effect on the release of IL-6 (IL-6): significant inhibitory effect

FC(F)(F)c1ccccc1/C=C1\CCC/C(=C\c2ccccc2C(F)(F)F)C1=NOCC1CCOCC1 [Example 28, 2,6-(E,E)-(2-(trifluoromethyl)benzylidene)cyclohexan-1-one-(tetrahydro-2H-pyran-4-yl) methyl oxime]
inhibitory effect on the release of IL-6 (IL-6): significant inhibitory effect
inhibitory effect on the release of TNF-α (TNF-α): significant inhibitory effect

Fc1cccc(CON=C2/C(=C/c3ccccc3C(F)(F)F)CCC/C2=C\c2ccccc2C(F)(F)F)c1 [Example 18, 2,6-(E,E)-(2-(trifluoromethyl)benzylidene)cyclohexan-1-one-3-fluorobenzyl oxime]
inhibitory effect on the release of IL-6 (IL-6): significant inhibitory effect

COCCON=C1/C(=C/c2ccc(OC)cc2)CCC/C1=C\c1ccc(OC)cc1 [Example 35, 2,6-(E,E)-(4-(methoxy)benzylidene)cyclohexan-1-one-(2-methoxyethyl)oxime]
inhibitory effect on the release of IL-6 (IL-6): significant inhibitory effect
inhibitory effect on the release of TNF-α (TNF-α): significant inhibitory effect
